For one experiment, the system named is Whole blood. Kind of experiment: Rejuvenation of stored whole blood, DPG assay. The class given is cell-based. The method, then: (§1) The DPG assay was as follows: • To 2 mL Tris buffer with EDTA, was added 0.05 ml ATP 40 mM plus NADH 9.6 mM; 0.04 ml PGM (Sigma kit 665PA, Sigma, Inc. St. Louis, Mo.) and 0.1 ml RBC. The reaction mixture was allowed to equilibrate for five minutes at room temperature and the absorption at 339 nm wavelength was recorded. Next was added 0.02 ml PGM and 0.02 ml glycolate-2-phosphate. The reaction was allowed to proceed for 25 minutes and the absorption at 339 nm wavelength was recorded. The packed cell DPG equals (μmol/ml)×100 divided by the hematocrit.
An experiment was devised to determine whether the DPG levels could be brought back to approximate initial levels, that is, whether the RBC could be rejuvenated. Whole blood with heparin as anticoagulant was held at room temperature for 6 days, at which time DPG levels were undetectable. D-ribose at 10 mM was added and the blood was incubated at 37° C. for thirty minutes. […] The incubation time will be extended to determine whether the DPG levels can be further increased.

Experiment [1] relates to RBC. Kind of experiment: Oxygen dissociation curve (P50) of stored and rejuvenated blood. It counts as cell-based. The following applies: six-day CPD sample rejuvenated as for Example 3A (10 mM D-ribose, 37° C., thirty minutes). From the text:
When the percent saturation of oxygen in blood is plotted against the partial pressure of oxygen (mmHg), the resulting curve is shown in FIG. 2. A shift to the right occurs when DPG is increased or pH is decreased. Consistent with the DPG experiments, the oxygen tension giving 50% saturation (P50) after six days storage in CPD was 43 mmHg. When this sample was rejuvenated as for Example 3A above, the P50 was 18.2 mmHg.

The subject of experiment [2] is RBC. Kind of experiment: Rejuvenation with D-ribose and phosphoenolpyruvate, DPG assay. It counts as cell-based. The following applies: six days at room temperature, then 15 mM D-ribose, 10 mM to 100 mM PEP or both, 37°, 30 minutes; day 0 about 2 μmol/ml (FIG. 3). The method, then: as §1
The rejuvenation experiment of Example 4 was repeated adding the high energy glycolysis intermediate phosphoenolpyruvate (PEP). Samples were held at for six days at room temperature until DPG levels were barely detectable. At that point, 15 mM D-ribose, 10 mM to 100 mM PEP or both were added and the blood incubated at 37° for 30 minutes. […] Adding PEP gave some benefit, raising the DPG levels to nearly 1 μmol/ml. Ribose also raised levels to about 1 μmol/ml. The effect of ribose plus PEP was additive: levels exceeded 1.5 μmol/ml, nearly the levels on day 0.

In experiment [3] the test system is RBC. To be noted: 42 days of storage at 4° C.; D-ribose: 15mM D-ribose and 10 mM phosphate added to CPD; cited from earlier work.

Here are results for three compounds from US8759315B2, “Methods for rejuvenating” (Viacell, LLC, priority 2003, dated 2014).

On to `OC[C@H]1O[C@@H](n2cnc3c(O)ncnc32)[C@H](O)[C@@H]1O` [inosine], for which, in the experiment on Whole blood (ribose reduced to one mM or increased to 100 mM, inosine substituted for ribose), the effect on rejuvenation result is given as “equally beneficial effects on rejuvenation”.

Consider `O=C[C@H](O)[C@H](O)[C@H](O)CO` [D-ribose], for which the “DPG after rejuvenation, as part of the usual initial value” with Whole blood (whole blood with heparin held 6 days at room temperature (DPG undetectable), 10 mM D-ribose, 37° C., thirty minutes) was “about one-third”. For the same compound, in the experiment with RBC [1], the “oxygen tension giving 50% saturation (P50)” value came out at 18.2 mmHg. Further, in the experiment with RBC [2], the “DPG levels after rejuvenation” value was “about 1 μmol/ml”. The “2,3 DPG level maintained, of its initial level” value with RBC [3] is listed as “about 50%”.

Take `C=C(OP(=O)(O)O)C(=O)O` [PEP, phosphoenolpyruvate]: the “DPG levels after rejuvenation” value with RBC [2] is recorded as “about 1 μmol/ml”.
